For orientation: IC50 means the concentration that gives 50% inhibition.

Molecules are shown by their SMILES.

T1 sequence (P15056 416-766): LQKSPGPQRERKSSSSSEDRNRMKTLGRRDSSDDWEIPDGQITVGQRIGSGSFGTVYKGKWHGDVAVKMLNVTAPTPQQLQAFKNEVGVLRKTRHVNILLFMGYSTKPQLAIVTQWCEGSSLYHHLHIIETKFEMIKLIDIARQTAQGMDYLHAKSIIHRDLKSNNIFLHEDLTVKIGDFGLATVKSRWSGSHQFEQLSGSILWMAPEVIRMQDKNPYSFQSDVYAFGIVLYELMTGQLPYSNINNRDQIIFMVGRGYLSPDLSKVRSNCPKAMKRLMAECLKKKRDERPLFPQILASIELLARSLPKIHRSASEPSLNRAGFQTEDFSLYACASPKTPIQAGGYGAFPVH

The first assay has as its system A375 cells. The experiment in a line: A375 cell proliferation assay (1), resazurin, 96-well. It counts as cell-based. The conditions noted are these: Homo sapiens, A-375, inhibition of cell proliferation. The gist of the method:
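Viability was read by resazurin fluorescence at 540 nm excitation and 600 nm emission, using a 440 μM solution added for 5–6 h at the end of culture. IC50 came from the curve fit.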
As for `COC(=O)Nc1cc(-c2cncc(-c3cc(NC(=O)N4CC[C@H](C(F)(F)F)C4)ccc3C)c2)ccn1` [Example 211], the 50% inhibitory concentration (IC50) lay in the range of 0.5 to 1 µM.
Same read-out and setting: under `COC(=O)Nc1cc(-c2cncc(-c3cc(NC(=O)N4CCCC4)ccc3C)c2)ccn1` [Example 213] stands 1 to 10 µM; under `CNC(=O)c1cc(-c2cncc(-c3cc(NC(=O)N4CC[C@H](C(F)(F)F)C4)c(F)cc3C)c2)ccn1` [Example 214], 1 to 10 µM; under `Cc1cc(F)c(NC(=O)N2CC[C@H](C(F)(F)F)C2)cc1-c1cncc(-c2cc(NC(=O)C3CC3)ncn2)c1` [Example 216], 0.1 to 0.5 µM.
Consider `Cc1ccc(NC(=O)N2CC[C@@H](C(C)C)C2)cc1-c1cncc(-c2cc(NC(=O)C3CC3)ncn2)c1` [Example 217], for which the IC50 was not above 0.1 µM.
In the case of `Cc1ccc(NC(=O)N2CCC3(CC3)C2)cc1-c1cncc(-c2cc(NC(=O)C3CC3)ncn2)c1` [Example 218], the IC50 fell in the range of 0.1 to 0.5 µM.
For `Cc1ccc(NC(=O)N2CC[C@@H](C)C2)cc1-c1cncc(-c2cc(NC(=O)C3CC3)ncn2)c1` [Example 219], the IC50 lay within 0.5 to 1 µM.
For the compound `Cc1ccc(NC(=O)N2CC[C@H](C(C)C)C2)cc1-c1cncc(-c2cc(NC(=O)C3CC3)ncn2)c1` [Example 221], the IC50 was not above 0.1 µM.
Same read-out and setting: under `COC(=O)Nc1cc(-c2cc(-c3cc(NC(=O)N4CCC(C(F)(F)F)C4)ccc3C)cc(OCCO)n2)ccn1` (stereo not shown) [Example 222] stands 0.1 to 0.5 µM; under `COC(=O)Nc1cc(-c2cc(-c3cc(NC(=O)N4CC[C@H](C(F)(F)F)C4)ccc3C)nc(C)n2)ccn1` [Example 223], 1 to 10 µM.

The test system of a further assay is H2405 cells. Put plainly: H2405 cell proliferation assay (1), resazurin, 96-well. It counts as cell-based. The note with it: Homo sapiens, NCI-H2405, inhibition of cell proliferation. The gist of the method: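 This is a resazurin viability readout (excitation 540 nm, emission 600 nm) taken 5-6 h after adding 440 μM resazurin solution, giving IC50 values.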
A general note: Resazurin is reduced to fluorescent resorufin, in cell work by metabolically active cells.
Take `COC(=O)Nc1cc(-c2cncc(-c3cc(NC(=O)N4CC[C@H](C(F)(F)F)C4)ccc3C)c2)ccn1` [Example 211]: the IC50 lay within 0.1 to 0.5 µM.
With `COC(=O)Nc1cc(-c2cncc(-c3cc(NC(=O)N4CCCC4)ccc3C)c2)ccn1` [Example 213], the IC50 fell in the range of 1 to 10 µM.
As for `CNC(=O)c1cc(-c2cncc(-c3cc(NC(=O)N4CC[C@H](C(F)(F)F)C4)c(F)cc3C)c2)ccn1` [Example 214], the IC50 lay in the range of 0.1 to 0.5 µM.
The same measure, in the same setting: under `Cc1cc(F)c(NC(=O)N2CC[C@H](C(F)(F)F)C2)cc1-c1cncc(-c2cc(NC(=O)C3CC3)ncn2)c1` [Example 216] stands 0.1 to 0.5 µM; under `Cc1ccc(NC(=O)N2CC[C@@H](C(C)C)C2)cc1-c1cncc(-c2cc(NC(=O)C3CC3)ncn2)c1` [Example 217], 0.1 to 0.5 µM; under `Cc1ccc(NC(=O)N2CCC3(CC3)C2)cc1-c1cncc(-c2cc(NC(=O)C3CC3)ncn2)c1` [Example 218], 0.1 to 0.5 µM.
Consider `Cc1ccc(NC(=O)N2CC[C@@H](C)C2)cc1-c1cncc(-c2cc(NC(=O)C3CC3)ncn2)c1` [Example 219], for which the IC50 was 0.1 to 0.5 µM.
On the same count and under the same terms, under `Cc1ccc(NC(=O)N2CC[C@H](C(C)C)C2)cc1-c1cncc(-c2cc(NC(=O)C3CC3)ncn2)c1` [Example 221] stands not above 0.1 µM; under `COC(=O)Nc1cc(-c2cc(-c3cc(NC(=O)N4CCC(C(F)(F)F)C4)ccc3C)cc(OCCO)n2)ccn1` (stereo not shown) [Example 222], 0.1 to 0.5 µM; under `COC(=O)Nc1cc(-c2cc(-c3cc(NC(=O)N4CC[C@H](C(F)(F)F)C4)ccc3C)nc(C)n2)ccn1` [Example 223], 1 to 10 µM.

The next assay has as its system WM3928 cells. Put plainly: WM3928 cell proliferation assay (1), resazurin, 96-well. The note with it: inhibition of cell proliferation. It counts as cell-based. The gist of the method: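 IC50 was derived from resazurin fluorescence (ex 540, em 600 nm) after a 6–7 h dye incubation. Before that, cells had 67–72 h of compound exposure at 37 °C, 5% CO2.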
For `COC(=O)Nc1cc(-c2cncc(-c3cc(NC(=O)N4CC[C@H](C(F)(F)F)C4)ccc3C)c2)ccn1` [Example 211], the IC50 was 0.1 to 0.5 µM.
Turning to `COC(=O)Nc1cc(-c2cncc(-c3cc(NC(=O)N4CCCC4)ccc3C)c2)ccn1` [Example 213], the IC50 is 1 to 10 µM.
The same measure, in the same setting: under `CNC(=O)c1cc(-c2cncc(-c3cc(NC(=O)N4CC[C@H](C(F)(F)F)C4)c(F)cc3C)c2)ccn1` [Example 214] stands 1 to 10 µM; under `Cc1cc(F)c(NC(=O)N2CC[C@H](C(F)(F)F)C2)cc1-c1cncc(-c2cc(NC(=O)C3CC3)ncn2)c1` [Example 216], not above 0.1 µM; under `Cc1ccc(NC(=O)N2CC[C@@H](C(C)C)C2)cc1-c1cncc(-c2cc(NC(=O)C3CC3)ncn2)c1` [Example 217], not above 0.1 µM.
Turning to `Cc1ccc(NC(=O)N2CCC3(CC3)C2)cc1-c1cncc(-c2cc(NC(=O)C3CC3)ncn2)c1` [Example 218], the IC50 was in the range of 0.1 to 0.5 µM.
Same read-out and setting: for `Cc1ccc(NC(=O)N2CC[C@@H](C)C2)cc1-c1cncc(-c2cc(NC(=O)C3CC3)ncn2)c1` [Example 219] the value was 0.5 to 1 µM; for `Cc1ccc(NC(=O)N2CC[C@H](C(C)C)C2)cc1-c1cncc(-c2cc(NC(=O)C3CC3)ncn2)c1` [Example 221], not above 0.1 µM.
Consider `COC(=O)Nc1cc(-c2cc(-c3cc(NC(=O)N4CCC(C(F)(F)F)C4)ccc3C)cc(OCCO)n2)ccn1` (stereo not shown) [Example 222], for which the IC50 is not above 0.1 µM.
`COC(=O)Nc1cc(-c2cc(-c3cc(NC(=O)N4CC[C@H](C(F)(F)F)C4)ccc3C)nc(C)n2)ccn1` [Example 223]: the IC50 lay within 1 to 10 µM.

The next assay concerns the target T1, B-Raf kinase (Homo sapiens, UniProt P15056).
T1 construct: GST (N); purchased Sigma
Put plainly: Biochemical assay for B-Raf.1 (coupled pyruvate kinase/lactate dehydrogenase). The conditions noted are these: read-out: BRAF.1 IC50. The gist of the method:
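NADH oxidation followed at 340 nm in a pyruvate kinase/lactate dehydrogenase-coupled assay with 0.13 nM B-Raf, 30.1 nM MEK substrate, 1 mM ATP, pH 7.5 Tris buffer, 1% DMSO. Monitored 6 h at 30 °C; rate taken from 4–5 h. IC50 from four-parameter sigmoidal fit.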
Regarding `COC(=O)Nc1cc(-c2cncc(-c3cc(NC(=O)N4CC[C@H](C(F)(F)F)C4)ccc3C)c2)ccn1` [Example 211], the IC50 is not above 0.1 µM.
With `COC(=O)Nc1cc(-c2cncc(-c3cc(NC(=O)N4CCCC4)ccc3C)c2)ccn1` [Example 213], the IC50 is more than 1 µM.
On to `CNC(=O)c1cc(-c2cncc(-c3cc(NC(=O)N4CC[C@H](C(F)(F)F)C4)c(F)cc3C)c2)ccn1` [Example 214], for which the IC50 is 0.5 to 1 µM.
As for `Cc1cc(F)c(NC(=O)N2CC[C@H](C(F)(F)F)C2)cc1-c1cncc(-c2cc(NC(=O)C3CC3)ncn2)c1` [Example 216], the half-maximal inhibitory concentration (IC50) was not above 0.1 µM.
For `Cc1ccc(NC(=O)N2CC[C@@H](C(C)C)C2)cc1-c1cncc(-c2cc(NC(=O)C3CC3)ncn2)c1` [Example 217], the IC50 was not above 0.1 µM.
Same read-out and setting: for `Cc1ccc(NC(=O)N2CCC3(CC3)C2)cc1-c1cncc(-c2cc(NC(=O)C3CC3)ncn2)c1` [Example 218] the value was not above 0.1 µM; for `Cc1ccc(NC(=O)N2CC[C@@H](C)C2)cc1-c1cncc(-c2cc(NC(=O)C3CC3)ncn2)c1` [Example 219], not above 0.1 µM.
Still for that read-out and setting: for `Cc1ccc(NC(=O)N2CC[C@H](C(C)C)C2)cc1-c1cncc(-c2cc(NC(=O)C3CC3)ncn2)c1` [Example 221] the value was not above 0.1 µM; for `COC(=O)Nc1cc(-c2cc(-c3cc(NC(=O)N4CCC(C(F)(F)F)C4)ccc3C)cc(OCCO)n2)ccn1` (stereo not shown) [Example 222], not above 0.1 µM.
Same read-out and setting: for `COC(=O)Nc1cc(-c2cc(-c3cc(NC(=O)N4CC[C@H](C(F)(F)F)C4)ccc3C)nc(C)n2)ccn1` [Example 223] the value was not above 0.1 µM.

(Values after patent publication US20230357179A1, “RAF KINASE INHIBITORS AND METHODS OF USE THEREOF” (Deciphera Pharmaceuticals, LLC, priority 2021, published 2023).)
